Columns and labels:
Assay in all cases: relative viability (nuclei count vs DMSO), 5 days (fraction); higher = more cells survive
Salubrinal + Tozasertib = compound: O=C(/C=C/c1ccccc1)NC(NC(=S)Nc1cccc2cccnc12)C(Cl)(Cl)Cl [Salubrinal] + Cc1cc(Nc2cc(N3CCN(C)CC3)nc(Sc3ccc(NC(=O)C4CC4)cc3)n2)n[nH]1 [Tozasertib] (partner 0.1 µM)
How it was run: (§1)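 For relative viability, nuclei counts in treated wells were divided by those in vehicle wells. Lung cancer cell lines had been pin-tool dosed in 1536-well plates the day after seeding and cultured for 5 days, then fixed and stained in one step (final 0.05% Triton X-100, 1% formaldehyde, 1 ug/ml Hoechst) and imaged at 4×. Doses were one drug alone or a fixed anchor-drug dose plus five library-drug doses (not always all listed) in √10 steps, and values are duplicate-plate medians.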

Salubrinal + Olaparib = compound: O=C(/C=C/c1ccccc1)NC(NC(=S)Nc1cccc2cccnc12)C(Cl)(Cl)Cl [Salubrinal] + O=C(c1cc(Cc2n[nH]c(=O)c3ccccc23)ccc1F)N1CCN(C(=O)C2CC2)CC1 [Olaparib] (partner 8 µM)
How it was run: as §1

[1] = compound: Cc1ccc2nc(NCCN)c3ncc(C)n3c2c1 + CS(=O)(=O)CCNCc1ccc(-c2ccc3ncnc(Nc4ccc(OCc5cccc(F)c5)c(Cl)c4)c3c2)o1 [Lapatinib] (partner 2 µM)
How it was run: as §1

Salubrinal + Alpelisib = compound: O=C(/C=C/c1ccccc1)NC(NC(=S)Nc1cccc2cccnc12)C(Cl)(Cl)Cl [Salubrinal] + Cc1nc(NC(=O)N2CCC[C@H]2C(N)=O)sc1-c1ccnc(C(C)(C)C(F)(F)F)c1 [Alpelisib] (partner 2 µM)
How it was run: as §1

Cell Line	relative viability (Salubrinal + Tozasertib; first compound 0.08 µM)	relative viability (Salubrinal + Tozasertib; first compound 0.253 µM)	relative viability (Salubrinal + Tozasertib; first compound 0.8 µM)	relative viability (Salubrinal + Tozasertib; first compound 2.53 µM)	relative viability (Salubrinal + Tozasertib; first compound 8 µM)	relative viability (Salubrinal + Olaparib; first compound 0.08 µM)	relative viability (Salubrinal + Olaparib; first compound 0.253 µM)	relative viability (Salubrinal + Olaparib; first compound 0.8 µM)	relative viability (Salubrinal + Olaparib; first compound 2.53 µM)	relative viability (Salubrinal + Olaparib; first compound 8 µM)	relative viability ([1]; first compound 0.04 µM)	relative viability ([1]; first compound 0.1265 µM)	relative viability ([1]; first compound 0.4 µM)	relative viability ([1]; first compound 1.265 µM)	relative viability ([1]; first compound 4 µM)	relative viability (Salubrinal + Alpelisib; first compound 0.08 µM)	relative viability (Salubrinal + Alpelisib; first compound 0.253 µM)	relative viability (Salubrinal + Alpelisib; first compound 0.8 µM)	relative viability (Salubrinal + Alpelisib; first compound 2.53 µM)	relative viability (Salubrinal + Alpelisib; first compound 8 µM)
HCC-827	0.429	0.423	0.406	0.417	0.432	0.684	0.646	0.647	0.629	0.664	0.21	0.207	0.191	0.195	0.209	0.995	1.07	0.954	0.985	0.963
HOP-62	0.334	0.378	0.409	0.347	0.334	0.318	1.34	0.943	0.456	0.386	1.13	0.845	0.688	0.81	1.02	0.861	1.26	0.95	1.03	1.21
LC-2-ad	0.45	0.449	0.478	0.408	0.354	0.677	0.708	0.729	0.728	0.709	0.939	0.922	0.915	0.945	0.89	1.01	0.784	0.92	0.881	0.831
LCLC-97TM1	0.238	0.157	0.266	0.188	0.165	0.289	0.345	0.376	0.412	0.383	1.06	1.42	0.78	1.33	1	0.258	0.302	0.254	–	0.276
LK-2	0.158	0.197	0.178	0.198	0.176	0.873	0.659	0.877	0.773	0.694	0.961	0.879	0.823	0.748	0.761	1.33	1.07	1.23	1.19	1.08
LOU-NH91	0.794	0.639	0.626	0.706	0.59	0.967	0.908	0.897	0.9	0.961	0.784	0.846	0.782	0.777	0.766	0.781	0.692	0.72	0.749	0.697
LU99A	0.253	0.267	0.265	0.275	0.27	0.286	0.29	0.265	0.24	0.222	1	0.944	1.06	0.957	0.986	0.644	0.559	0.66	0.476	0.53
LXF-289	0.183	0.18	0.216	0.194	0.201	1.27	0.918	1.25	1.14	1.07	0.956	0.882	0.894	0.873	0.902	1.13	0.956	1.13	1.08	0.966
NCI-H23	0.349	0.393	0.678	0.305	0.296	0.359	0.233	0.36	0.31	0.309	1.09	1.12	1.19	1.15	0.937	0.839	0.717	0.763	0.685	0.976
NCI-H322M	0.511	0.445	0.479	0.44	0.469	0.806	0.783	0.766	0.675	0.728	0.535	0.593	0.586	0.59	0.603	0.783	0.849	0.863	0.788	0.739
NCI-H358	0.107	0.12	0.111	0.108	0.0983	0.817	0.434	0.724	0.558	0.523	0.549	0.486	0.434	0.508	0.511	1.03	0.676	0.886	0.792	0.675
NCI-H460	0.393	0.268	0.484	0.253	0.102	0.541	0.606	0.514	0.355	0.368	0.999	1	0.886	0.898	0.745	0.615	0.358	0.433	0.419	0.451
NCI-H520	0.501	0.446	0.44	0.403	0.469	0.334	0.361	0.325	0.322	0.338	0.964	0.853	0.866	0.837	0.729	0.904	0.578	1.18	0.878	0.949
NCI-H596	0.968	1.1	0.897	0.909	0.806	0.768	0.525	0.597	0.668	0.581	1.12	1.11	1.31	0.962	1.05	0.55	0.426	0.441	0.572	0.528
NCI-H647	0.418	0.287	0.319	0.288	0.009	0.72	0.372	0.685	0.63	0.453	1.08	1.02	0.948	1.13	0.707	1.47	0.438	1.54	1.25	1.08
NCI-H650	0.81	0.768	0.798	0.687	0.704	0.438	0.45	0.474	0.385	0.381	0.927	0.123	0.645	0.969	0.761	1.29	1.14	1.14	1.11	1.04
NCI-H661	0.367	0.36	0.373	0.356	0.37	0.753	0.538	0.76	0.73	0.758	0.587	0.407	0.43	–	0.458	0.572	0.864	0.937	0.845	0.686
NCI-H727	0.651	0.718	0.563	0.608	0.575	0.804	0.581	0.815	0.699	0.662	1.22	0.887	1.19	0.766	0.762	0.768	0.453	0.63	0.602	0.561
NCI-H838	0.292	0.246	0.291	0.25	0.259	0.896	0.542	0.832	0.789	0.716	1.08	1.01	0.919	0.974	0.837	1.03	0.629	0.969	1.01	0.942
NCI-H1355	0.697	0.519	0.524	0.498	0.477	0.775	0.903	0.75	0.766	0.643	1.02	0.981	0.962	0.952	0.988	0.955	0.942	0.884	0.852	0.779
NCI-H1395	0.822	0.849	0.72	0.714	0.805	0.445	0.448	0.411	0.466	0.437	0.936	0.917	0.958	0.994	0.803	1.19	1.39	0.999	1.08	0.911
NCI-H1437	0.415	0.362	0.418	0.404	0.373	0.673	0.547	0.665	0.614	0.543	0.817	0.794	0.777	0.819	0.733	1.12	0.782	1.15	0.94	0.969
NCI-H1651	0.711	0.639	0.776	0.608	0.734	0.189	0.181	0.208	0.152	0.183	0.853	0.879	0.841	0.894	0.737	1.02	0.565	1.07	–	1.02
NCI-H1666	0.646	0.587	0.611	0.553	0.608	0.713	0.605	0.713	0.711	0.732	0.788	0.64	0.505	0.478	0.568	0.985	0.791	0.923	1.01	0.993
NCI-H1734	0.304	0.256	0.294	0.274	0.268	0.699	0.6	0.651	0.583	0.637	1.11	1	1.13	1.07	0.941	0.721	0.695	0.833	0.737	0.749
NCI-H1755	0.573	0.61	0.611	0.457	0.507	1.01	0.937	0.922	0.857	0.893	1.1	1.03	0.934	1.1	1.04	1.04	0.795	1.01	0.948	0.893
NCI-H1793	0.504	0.637	0.234	0.26	0.326	1.09	0.948	0.876	0.979	0.751	0.942	0.697	0.734	0.581	0.737	1	0.722	0.837	0.798	0.617

From the supplement of paper PMC10307832
